Test results from patent US20030207933A1, “Compositions and methods for increasing the sensitivity of apoptosis-resistant tumor cells to inducers of apoptosis” (priority 2002, published 2003).
“Also recorded” adds a separate entry of the source.

Key:
HL-60 Bcl-2 cells = test: DNA fragmentation (release of 3H-labeled DNA fragments) in Bcl-2-transfected HL-60 cells; type: cell-based, human
Ramos B lymphoma cells = test: Dox cytotoxicity by trypan blue exclusion in Ramos cells; type: cell-based; conditions: 24 hr
Protocol: In the present study, the sensitizing activity of W-188 and W-143 was tested in the Raji and Ramos cell lines. Since these two human B lymphoma lines naturally express high levels of anti-apoptotic Bcl-2 proteins, they may be more clinically relevant than the transfected HL-60-Bcl-2 line.
The sensitizing effects of W-143 and W-188 were first tested on these lines in vitro. […] Ramos cells were cultured with different concentrations of Dox with and without W-143 or W-188 at 20 μg/ml for 24 hr, and then viability assessed microscopically by counting at least 100 cells.

mice [1] = test: Acute single dose toxicity; type: in vivo; conditions: 1000 mg/kg single dose
Protocol: The present study assessed the acute single-dose toxicity of W-188 and W-143.
Solutions of W-188 were dissolved in DMSO and injected i.p. in groups of three mice each as well as vehicle control at 500 mg/kg.
Since W-143 is water-soluble, higher doses could be tested.
Therefore, the MTD (maximum tolerated dose) for a single dose of either compound is estimated to be 500 mg/kg.

mice [2] = test: Multiple dose toxicity with histopathological analysis; type: in vivo
Protocol: In the present study, more extensive toxicity studies with histopathological analysis of seven different tissues was performed on W-143 at a commercial lab.
Groups of six mice (3 male and 3 females) each were given three i.p. injections at two day intervals of vehicle, doxorubicin 5 mg/kg alone, W-143 200 mg/kg alone or both together. On day 5 and day 15 after the last injection, mice were sacrificed, necropsied, and tissue samples processed. Tissues examined include bone marrow, liver, heart, small and large intestine, 1 sex organ, and kidney.

RIF-1 fibrosarcoma = RIF-1 fibrosarcoma tumor growth in vivo; design: species or system mice; conditions: for Inhibition of tumor growth compared to vehicle control: day 15
Description: The present study tested in the ability of W-188 to synergize with Dox and inhibit tumor growth in vivo. The RIF-1 fibrosarcoma model was used because this model has been well-characterized, and naturally expresses high Bcl-2 levels and has a consistent growth pattern (Nahabedian, M. Y., et al., J. Natl. Can. Inst., 1988, 80:739; Chang, M-J., et al., Cancer Res., 1994, 54:5380; Srivastana, M., et al., J. Biol. Chem., 2001, 276:15481).
Groups of five mice each were inoculated s.c. with RIF-1 cells. The tumors were allowed to grow for 12 days to a size of 0.5 cm diameter, which was designated day 0. The mice were then given five i.p. injections every other day with vehicle, Dox 2.5 mg/kg, Dox 5.0 mg/kg, W-188 100 mg/kg, and Dox 5.0 mg/kg+W-188 100 mg/kg. The mice were weighed and the tumor size measured every day.
The protocol was similar to that described for the W-188 experiment in Example 8, except that in this study, mice with established tumors received only three injections of W-143 or Dox every other day starting on day 0.

Bcl-2 = test: Western blot for expression of Bcl-2 in RIF-1 tumors in vivo; design: species or system mice; conditions: day 15
Description: Cells were dissociated, lysed, and the nuclei and mitochondria separated by differential centrifugation. RIF-1 cells cultured in vitro were processed in a similar manner as a positive control. Equal amounts of protein extracts were separated by electrophoresis and analyzed by Western blot for expression of Bcl-2. […] The pattern of Bcl-2 expression was similar in the nuclei, although the overall levels were lower than in the mitochondria. […] Most likely, this discrepancy can be explained by the fact that this line is transfected with exogenous Bcl-2, whereas the RIF-1 line expresses endogenous Bcl-2 under control of its natural promoter. […] Alternatively, W-188 and W-143 may differ in their mechanisms of action, although this conclusion seems less likely in view of the structural similarity of these two compounds.

Water solubility = type: physicochemical
[3] = Body weight of RIF-1 tumor bearing mice
Description: Groups of five mice each were inoculated s.c. with RIF-1 cells. The tumors were allowed to grow for 12 days to a size of 0.5 cm diameter, which was designated day 0. […] The mice were weighed and the tumor size measured every day.

[4] = W-143 100 mg/kg alone, data not shown

## CCC1=C(C)C(=O)NC1C (centres unmarked) [W-143, 3,5-dimethyl-4-ethyl-2-oxo-2,5-dihydropyrrole]
HL-60 Bcl-2 cells
  Sensitization to etoposide-induced apoptosis: sensitize 1L-60-Bcl-2 cells to etoposide-induced apoptosis
HL-60 Bcl-2 cells; Exp 5, etoposide 10 μM + compound 10 μM
  % DNA Fragmentation: 34%
Ramos B lymphoma cells; 20 μg/ml, no Dox
  Toxicity of compound alone: completely nontoxic
Ramos B lymphoma cells; compound 20 μg/ml + Dox, FIG. 6
  Increase of cytotoxicity mediated by Dox: over two fold
Mice [1]
  Deaths: All three mice injected with 1000 mg/kg of W-143 died within 24 h
Mice [2]; W-143 200 mg/kg alone, three i.p. injections at two day intervals, day 5
  Histopathology: minor vacuolar changes in the liver
Mice [2]; W-143 200 mg/kg alone, day 15
  Histopathology: all tissues were normal
Mice [2]; doxorubicin 5 mg/kg + W-143 200 mg/kg, three i.p. injections, day 5
  Histopathology: minor vacuolar changes in the liver
Mice [2]; doxorubicin 5 mg/kg + W-143 200 mg/kg, day 15
  Histopathology: all tissues were normal
RIF-1 fibrosarcoma; Dox + W-143 100 mg/kg, p=0.005
  Inhibition of tumor growth compared to vehicle control: 70%
RIF-1 fibrosarcoma; Dox + W-143 200 mg/kg, p=0.001
  Inhibition of tumor growth compared to vehicle control: 83%
RIF-1 fibrosarcoma; [4]
  Effect on tumor growth: did not decrease tumor growth
RIF-1 fibrosarcoma; W-143 200 mg/kg alone, three injections, FIG. 14
  Effect on tumor growth: only a small effect on tumor growth
RIF-1 fibrosarcoma; W-143 + Dox combined
  Effect on tumor growth: synergistically inhibited tumor growth
Bcl-2; Dox + W-143, FIG. 16 lane 10
  Bcl-2 expression in tumor cell mitochondria: no detectable Bcl-2
Bcl-2; W-143 alone, FIG. 16
  Bcl-2 expression in tumor cell mitochondria: expressed high levels of Bcl-2
Water solubility
  Water solubility: water soluble; also recorded: water-soluble
[3]; Dox + W-143 100 mg/kg, any time point
  Body weight: did not show any greater weight loss
[3]; Dox + W-143 200 mg/kg, day 13
  Body weight: weighed just as much as mice treated with Dox alone on day 13
[3]; [4]
  Body weight: weighed similar to the vehicle control mice
